The test system of series [1] is Pseudomonas aeruginosa SR 24. The experiment in a line: minimal inhibitory concentration (agar plate two-fold dilution), Pseudomonas aeruginosa SR 24. It is filed as cell-based. The procedure: (§1) 3) The said sodium salt (1 g) prepared by neutralizing under sterile condition is dissolved in distilled water for injection (4 g) and administered to a patient suffering from sensitive pseudomonal bacteria twice a day intravenously to treat this infection. The free acid or sodium salt is dissolved in 0.01N-aqueous sodium hydrogen carbonate and tested for minimal inhibitory concentration against gram-negative bacteria according to a method of Japan Society of Chemotherapy on an agar plate by two-fold dilution method.
The minimal inhibitory concentration of Compound (I) where R^1 is 2-(2-amino-4-thiazolyl)-2-(1-carboxy-1-methylethoxyimino)acetamido, R^2 is hydrogen, R^3 is hydrogen, R^4 is 3,4-dihydroxyphenyl, R^5 is methylene, R^6 combined with Y- is negative charge, and X is sulfur against Pseudomonas aeruginosa SR 24 is 0.2 μg/ml. By altering the groups with the following ones to vary the activities as listed below.

The subject of series [2] is Pseudomonas aeruginosa SR 5018. Briefly: minimal inhibitory concentration (agar plate two-fold dilution), ofloxacin resistant Pseudomonas aeruginosa SR 5018. As to conditions: SR5018. The class given is cell-based. The procedure: as §1
Series [3] relates to Pseudomonas aeruginosa SR 24. Briefly: 50% effective dose preventing lethal Pseudomonas aeruginosa SR 24 mouse infection. It is filed as in vivo. The source says:
(§2) The compound is highly safe in the case of intravenous injection to various animals.

Series [4] deals with various animals. The experiment in a line: safety, intravenous injection to various animals. The class given is in vivo.
Source text: as §2

In series [5] the test system is rabbits. The class given is in vivo. To be noted: up to 1 g/kg.
Source text: as §2

In series [6] the test system is mice. The experiment in a line: safety, intravenous injection in mice. To be noted: up to 1 g/kg. The class given is in vivo.
Source text: as §2

Series [7] relates to Escherichia coli SR 5082. The experiment in a line: minimal inhibitory concentration (agar plate two-fold dilution), Escherichia coli SR 5082. It is filed as cell-based. As to conditions: SR5082. The procedure: as §1
[8] abbreviates: SR24, Pseudomonas aeruginosa SR 24, Experiment 1, read-out: minimal inhibitory concentration.
[9] abbreviates: ofloxacin resistant Pseudomonas aeruginosa SR 5018, read-out: MIC.

This is an account of results in patent US5134138A, “Phenacylpyridiniothiocephalosporins” (Shionogi & Co., Ltd., priority 1989, dated 1992).

In brackets after ≈: the same amount, converted by molar mass. Like-named read-outs stand apart in the source and are kept apart here.

`CC(C)(C=C(C(=O)N[C@@H]1C(=O)N2C(C(=O)[O-])=C(CSc3cc[n+](CC(=O)c4ccc(O)c(O)c4)cc3)CS[C@H]12)c1csc(N)n1)C(=O)O` [No. 27]: the MIC in series [1] (setting [8]) was determined as 0.1 µg/mL (≈ 0.14 µM). Take `CC(C)(O/N=C(\C(=O)N[C@@H]1C(=O)N2C(C(=O)[O-])=C(C[n+]3ccccc3)CS[C@H]12)c1csc(N)n1)C(=O)O` [ceftazidime, reference compound]: the MIC in series [2] (Pseudomonas aeruginosa) stood at 25 µg/mL (≈ 45.7 µM). In the case of `CON=C(C(=O)N[C@@H]1C(=O)N2C(C(=O)[O-])=C(C[N+]34CCC(C(N)=O)(CC3)CC4)CS[C@H]12)c1nsc(N)n1` [E-1040, 3-(4-carbamoylquinuclidinio)methyl-7β-[2-(5-amino-1,2,4-thiadiazol-3-yl)-2-methoxyimino]-acetamido-3-cephem-4-carboxylate, reference compound], the MIC in series [2] (Pseudomonas aeruginosa) amounted to 6.3 µg/mL (≈ 11.4 µM). Consider `CC(=O)Oc1ccc(C(=O)C[n+]2ccc(SCC3=C(C(=O)[O-])N4C(=O)[C@@H](NC(=O)C(=NOC(C)(C)C(=O)O)c5csc(N)n5)[C@H]4SC3)cc2)cc1OC(C)=O` [No. 11], for which, in series [1] (setting [8]), the MIC amounted to 0.025 µg/mL (≈ 0.0308 µM). Consider `CC(C)(ON=C(C(=O)N[C@@H]1C(=O)N2C(C(=O)[O-])=C(CSc3cc[n+](CC(=O)c4ccc(O)c(O)c4)cc3)C[S+]([O-])[C@H]12)c1csc(N)n1)C(=O)O` (some centres unmarked) [No. 9], for which the MIC in series [1] (Pseudomonas aeruginosa SR 24, listed as representative compound (I)) is 0.1 µg/mL (≈ 0.134 µM); in series [1] (setting [8]), 0.1 µg/mL (≈ 0.134 µM); in series [1] (SR24, Pseudomonas aeruginosa SR 24, read-out: MIC), 0.1 µg/mL (≈ 0.134 µM); in series [2] (setting [9]), 0.1 µg/mL (≈ 0.134 µM); in series [7], 0.2 µg/mL (≈ 0.269 µM). Further, the “times activity versus E-1040 (MIC)” value in series [2] (Pseudomonas aeruginosa) amounted to 63 times. The “times activity versus ceftazidime (MIC)” value in series [2] (Pseudomonas aeruginosa) came to 250 times. In addition, in series [3] (Pseudomonas aeruginosa SR 24, mouse infection, listed as Compound (I) where X is sulfinyl), the “ED50 (50% effective dose preventing lethal infection)” value was found to be 1.35 mg/kg. For the same molecule, the safety entry in series [4] is “highly safe”. For the same molecule, the renal toxicity entry in series [5] is reported as “did not show renal toxicity”. In series [6], the death result is on record as “no death”. Also, the “toxic effect as Antabuse-like activity” value in series [6] is “no death nor toxic effect as Antabuse-like activity”. For `CC(C)(ON=C(C(=O)N[C@@H]1C(=O)N2C(C(=O)[O-])=C(CSc3cc[n+](CC(=O)c4ccc(O)c(O)c4)cc3)CO[C@H]12)c1csc(N)n1)C(=O)O` [No. 13], the MIC in series [1] (setting [8]) came to 0.2 µg/mL (≈ 0.281 µM). On the same count and under the same terms, then `CC(C)(ON=C(C(=O)N[C@@H]1C(=O)N2C(C(=O)[O-])=C(CSc3cc[n+](CC(=O)c4ccc(O)c(O)c4)c4c3CCC4)CS[C@H]12)c1csc(N)n1)C(=O)O` [No. 25], with 0.05 µg/mL (≈ 0.065 µM). With `CC(C)(ON=C(C(=O)N[C@@H]1C(=O)N2C(C(=O)[O-])=C(CSc3cc[n+](CC(=O)c4ccc(O)c(O)c4)cc3)CS[C@H]12)c1csc(N)n1)C(=O)O` [No. 8], in series [1] (setting [8]), the MIC stood at 0.2 µg/mL (≈ 0.274 µM). Besides, the ED50 (commonly the dose that gives a 50% effect, or the effect in half of the subjects) in series [3] (Pseudomonas aeruginosa, SR24, read-out: ED50 (50% effective dose preventing lethal infection), Pseudomonas aeruginosa SR 24, mouse infection) fell in the range of 1.35 to 6.27 mg/kg. `Cc1cc(O)c(O)cc1C(=O)C[n+]1ccc(SCC2=C(C(=O)[O-])N3C(=O)[C@@H](NC(=O)C(=NOC(C)(C)C(=O)O)c4csc(N)n4)[C@H]3SC2)cc1` [No. 14]: in series [1] (setting [8]), the MIC was found to be 0.05 µg/mL (≈ 0.0673 µM). With `CC(C)(ON=C(C(=O)N[C@@H]1C(=O)N2C(C(=O)[O-])=C(CSc3cc[n+](CC(=O)c4cc(O)c(O)cc4Cl)cc3)CS[C@H]12)c1csc(N)n1)C(=O)O` [No. 22 (3,4-OH-6-Cl)], the MIC in series [1] (setting [8]) was determined as 0.025 µg/mL (≈ 0.0328 µM). Same read-out and setting: then `O=C(Cc1ccccc1)N[C@@H]1C(=O)N2C(C(=O)[O-])=C(CSc3cc[n+](CC(=O)c4ccc(O)c(O)c4)cc3)CS[C@H]12` [No. 1], with more than 100 µg/mL; and `CON=C(C(=O)N[C@@H]1C(=O)N2C(C(=O)[O-])=C(CSc3cc[n+](CC(=O)c4ccc(O)c(O)c4)cc3)CS[C@H]12)c1csc(N)n1` [No. 5], with 0.4 µg/mL (≈ 0.609 µM); and `CC(C)(ON=C(C(=O)N[C@@H]1C(=O)N2C(C(=O)[O-])=C(CSc3cc[n+](CC(=O)c4cc(O)c(O)c(Cl)c4)cc3)CS[C@H]12)c1csc(N)n1)C(=O)O` [No. 18], with 0.025 µg/mL (≈ 0.0328 µM). On the same count and under the same terms, then `CC(C(=O)c1ccc(O)c(O)c1)[n+]1ccc(SCC2=C(C(=O)[O-])N3C(=O)[C@@H](NC(=O)C(=NOC(C)(C)C(=O)O)c4csc(N)n4)[C@H]3SC2)cc1` (some centres unmarked) [No. 23], with 0.025 µg/mL (≈ 0.0337 µM); and `CC(C)(ON=C(C(=O)N[C@@H]1C(=O)N2C(C(=O)[O-])=C(CSc3cc[n+](CC(=O)c4cccc(O)c4O)cc3)CS[C@H]12)c1csc(N)n1)C(=O)O` [No. 7], with 0.39 µg/mL (≈ 0.535 µM). On to `CC(C)(ON=C(C(=O)N[C@@H]1C(=O)N2C(C(=O)[O-])=C(C[n+]3ccc4cc(O)c(O)cc4c3)CS[C@H]12)c1csc(N)n1)C(=O)O` [BO-1341, 3-(6,7-dihydroxyisoquinolinio)methyl-7β-(2-(2-aminothiazol-4-yl)-2-(1-carboxy-1-methylethoxyimino)acetamido)-3-cephem-4-carboxylate, reference compound], for which the MIC in series [2] (setting [9]) stood at 0.4 µg/mL (≈ 0.636 µM); in series [7], 1.6 µg/mL (≈ 2.55 µM).
